Our source for the IC50 values is US5292737A, “N,N'-bis(sulfonamido)-2-amino-4-iminonaphthalen-1-ones and N,N'-bis(amido)-2-amino-4-iminonaphthalen-1-ones” (Sphinx Pharmaceuticals Corporation, priority 1992, dated 1994).

One test has as its system human neutrophils. The test can be described thus: Neutrophil Superoxide Anion (O2) Release Assay, PMA-stimulated. The test is classed as cell-based. To be noted: PMA-stimulated human neutrophils; read-out: Neutrophil Superoxide Release IC50. The source says: Phorbol-12,13-myristate acetate (PMA) stimulates O2 production in human neutrophils which in turn reduces cytochrome C. Reducing cytochrome C increases absorbance and the change in optical density (OD) is proportional to the amount of O2 produced by PMA stimulation. Inhibition is expressed as an IC50 value and is the amount of test compound that will inhibit fifty percent of the PMA-stimulated respiratory outburst, i.e. O2^31 production (Lherer et al. (1981) J. Clinical lnvest. 68:1314; Roberts et al. (1982) J. Immunological Methods 49:193).
Human donor blood in 0.38% Sodium Citrate was centrifuged for 10 minutes at 160 ×g at room temperature. Platelet-rich plasma was removed leaving the buffy coat and the red cell-enriched fraction. Saline with 0.38% Sodium Citrate was added to this fraction up to the original blood volume. The enriched blood sample was diluted 1:1 (v:v) with 3% dextran T500 (Pharmacia) in normal saline and placed in a 60 cc syringe, inverted over a beaker and allowed to settle 30 minutes at room temperature.
Leukocyte-enriched plasma was removed from the syringe, placed into 50 ml polypropylene conical centrifuge tubes and underlaid with 15-20 ml Lymphocyte Separation Medium (LSM Organon Technica). The tubes were centrifuged for 40 minutes at 500×g at room temperature. The plasma, buffy coat and LSM were aspirated off the pellets which contained red blood cells and neutrophils.
The pellets were vortexed and 10 ml ice-cold 0.2% NaCl was added to lyse the red blood cells while vortexing again for 10 seconds. Ice-cold 1.6% NaCl was added while vortexing for 10 seconds. The cells were combined from multiple tubes, centrifuged 10 min at 400×g at 4° C. This red cell lysis was repeated and the resulting neutrophil pellet was washed once in Reaction HBSS (GIBCO, HBSS with Ca^++ and Mg^++,.238% HEPES, 0.1% dextrose, 0.1% RIA grade bovine serum albumin, PH 7.2). The cells were resuspended in 1/5 the original blood volume with Reaction HBSS, counted and adjusted to 4.0×10^6 cells/ml at 4° C.
Duplicate samples of neutrophils were tested in 12×75 mm polypropylene tubes containing 0.25 ml of the neutrophil suspension. Cytochrome C mix (0.25 ml, 6.0 mg/ml cytochrome C type IV (Sigma) plus 1200 U/ml bovine liver catalase (Sigma) in Reaction HBSS described above) was added. PMA was added at 2×the final concentration in 0.5 ml of Reaction HBSS. PMA final test concentration were 0.0, 0.3, 9.0, 27.0, and 81.0 ng/ml. The tubes were vortexed and incubated for 10 minutes at 37° C. with shaking. After chilling for 5 minutes at 4° C. and centrifuging for 10 minutes at 4° C., 550×g, 0.5 ml of supernatant was removed from each tube. Normal saline (0.5 ml) was added to each 0.5 ml sample of supernatant and the absorbance of each sample was read at 550 nm on a spectrophotometer (Shimadzu). The PMA concentration which gives nearly maximal stimulation of superoxide release was determined.
The test samples of neutrophils were prepared as in the PMA dose response through addition of cytochrome C mix. Then 0.4 ml of Reaction HBSS as a control or test agent at 2.5×final test concentration was added and the tubes were vortexed and incubated for 30 minutes at 37° C. with shaking. PMA (0.1 ml) was added at a 10× concentration of the final concentration determined above. The samples were incubated for 10 minutes at 37° C. with shaking, chilled for 5 minutes at 4° C., and then centrifuged for 5 minutes at 550×g at 4° C. The supernatant (0.5 ml) was diluted with 0.5 ml normal saline as above and the absorbance was then determined at 550 nm. The percent change was calculated as follows: [formula] D-sphingosine (Sigma) used as reference standard.
Human neutrophils were first isolated according to Lherer et al. ((1981) J. Clinical Invest. 68:1314) and then tested for stimulation of superoxide anion release with phorbol--12,13-myristate acetate (PMA) in a dose-dependent manner. […]

The target of the next test is T1, PKC isoenzyme βII (Homo sapiens, UniProt P05771).
T1 construct: made in house; host or cells: baculovirus-insect cell expression system
The test can be described thus: Protein kinase C inhibition assay, PKC isoenzyme βII. It is filed as biochemical. Conditions: read-out: IC50 PKC βII. Put shortly: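 Radiometric filter assay: enzyme from baculovirus-infected insect cells, H1 or Mbp acceptor, PS/DAG vesicles at suboptimal lipid levels, physiologic-like buffer. Test compound 1–150 μM (four levels, DMSO). 10 min reaction, 25% TCA + BSA stop, scintillation count; IC50 = 50% inhibition of control activity.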

Some results are limits rather than exact numbers.

The IC50 is the concentration needed to halve the response being measured.

T1 sequence (P05771 1-673 isoform P05771-2): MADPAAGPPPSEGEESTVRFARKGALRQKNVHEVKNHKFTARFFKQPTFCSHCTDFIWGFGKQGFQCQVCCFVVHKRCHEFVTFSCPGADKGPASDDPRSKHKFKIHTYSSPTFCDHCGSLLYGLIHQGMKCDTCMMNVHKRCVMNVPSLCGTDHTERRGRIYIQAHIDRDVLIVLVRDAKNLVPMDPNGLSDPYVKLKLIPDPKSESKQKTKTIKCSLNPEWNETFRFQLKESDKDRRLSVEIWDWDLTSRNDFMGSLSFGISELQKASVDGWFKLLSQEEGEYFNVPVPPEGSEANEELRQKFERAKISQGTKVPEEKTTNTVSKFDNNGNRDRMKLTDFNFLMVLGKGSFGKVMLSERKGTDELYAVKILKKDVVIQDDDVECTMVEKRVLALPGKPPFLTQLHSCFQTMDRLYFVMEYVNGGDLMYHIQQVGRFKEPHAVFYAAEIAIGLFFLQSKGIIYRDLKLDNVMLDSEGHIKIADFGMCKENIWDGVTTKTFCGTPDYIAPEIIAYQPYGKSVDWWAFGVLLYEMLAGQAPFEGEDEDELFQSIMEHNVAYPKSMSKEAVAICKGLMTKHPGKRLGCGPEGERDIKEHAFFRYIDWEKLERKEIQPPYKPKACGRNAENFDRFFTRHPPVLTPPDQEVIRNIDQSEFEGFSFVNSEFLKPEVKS

In the case of `O=C1C(Nc2ccc(S(=O)(=O)Nc3ccccn3)cc2)=CC(=Nc2ccc(S(=O)(=O)Nc3ccccn3)cc2)c2ccccc21` [Compound 6i], the IC50 with human neutrophils worked out at 110 nM; at PKC isoenzyme βII, 47 µM.
In the case of `COc1ccc(NS(=O)(=O)c2ccc(N=C3C=C(Nc4ccc(S(=O)(=O)Nc5ccc(OC)nn5)cc4)C(=O)c4ccccc43)cc2)nn1` [Compound 6j], the half-inhibitory concentration (IC50) was found to be 3330 nM in the test on human neutrophils and 47 µM on PKC isoenzyme βII.
`O=C1C(Nc2ccc(S(=O)(=O)Nc3ccc(Cl)nn3)cc2)=CC(=Nc2ccc(S(=O)(=O)Nc3ccc(Cl)nn3)cc2)c2ccccc21` [Compound 6l]: the IC50 in the test on human neutrophils turned out to be 5230 nM; at PKC isoenzyme βII, 29 µM.
As to `O=C1C(Nc2ccc(S(=O)(=O)Nc3cnc4ccccc4n3)cc2)=CC(=Nc2ccc(S(=O)(=O)Nc3cnc4ccccc4n3)cc2)c2ccccc21` [Compound 6m], the IC50 came to 1390 nM in the test on human neutrophils and 23 µM on PKC isoenzyme βII.
In the same order, the values of `O=C1C(Nc2ccc(S(=O)(=O)NCc3ccccn3)cc2)=CC(=Nc2ccc(S(=O)(=O)NCc3ccccn3)cc2)c2ccccc21` [Compound 6n] are 100 nM and more than 150 µM.
